The numbers were not newly measured in patent publication US7803735B2, “Hydroconversion processes employing multi-metallic catalysts and method for making thereof” (Chevron U.S.A. Inc., priority 2007, dated 2010), which cites them from elsewhere.

The series deals with rats. The settings on record: single oral dose to rats; chelating agent (ligand) L.

In general, LD50 refers to the dose expected to kill half of the subjects tested. For the compound `O=CC(=O)O` [glyoxylic], the LD50 is on record as 3000 mg/kg.
